The target in this test is Serotonin 3 (5-HT3) receptor. As to the kind of experiment: Binding affinity to 5-HT3 serotonin receptor in NG 108-15 neuroblastoma glioma cells using [3H]GR-65630 radioligand.
`N=C(N)Nc1cc(Cl)c(Cl)c(Cl)c1` gave a Ki of 0.7 nM.

As for `N=C(N)NC(=N)Nc1cccc(Cl)c1`, the Ki was 18 nM. This Ki lies about 26-fold higher than the previous one.

The compound `NC(N)=Nc1cccc(Cl)c1` displayed an inhibition constant Ki of 32 nM. This Ki lies about 1.8-fold higher than the previous one.

With `Nc1nc(Nc2cccc(Cl)c2)n[nH]1`, the Ki is above 10000 nM.

`N=C(N)NC(=N)Nc1cc(Cl)c(Cl)c(Cl)c1` yielded an inhibition constant Ki of 2.7 nM.

In turn, `N=C(N)Nc1cc(Cl)cc(Cl)c1` showed an inhibitory constant (Ki) of 5 nM.

In the case of `C/N=C(\N)Nc1cccc(Cl)c1`, the affinity corresponds to a Ki of 450 nM.

`Clc1cccc(NC2=NCCN2)c1` yielded a Ki above 10000 nM.

In turn, `Cc1ccc(NC(=N)N=C(N)N)cc1` gave a Ki of 890 nM.

On to `COc1ccc(NC(=N)N)cc1`, for which the Ki is 990 nM.

For the compound `NC(N)=Nc1ccc2ccccc2c1`, the inhibition constant Ki came to 18 nM.

For `C/N=C(\NC)Nc1cccc(Cl)c1`, the inhibition constant (Ki) was above 10000 nM.

In the case of `N=C(N)N=C(N)Nc1cc(Cl)cc(Cl)c1`, the Ki stood at 1.8 nM. This counts as single-digit nanomolar.

`N=C(N)Nc1ccc(Cl)c(Cl)c1` yielded an inhibition constant Ki of 3.1 nM.

Compound `N=C(N)Nc1ccc(Cl)cc1` yielded an inhibitory constant (Ki) of 326 nM.

In turn, `CN(C(=N)N)c1cccc(Cl)c1` had a Ki of 6200 nM.

In the case of `N=C(N)NC(=N)Nc1ccc(Cl)c(Cl)c1`, the Ki was 12 nM.

The compound `COc1ccc(NC(=N)N)cc1OC` gave a Ki of 2710 nM.

In turn, `N=C(N)N=C(N)Nc1ccc2ccccc2c1` displayed an inhibitory constant (Ki) of 14 nM. This Ki lies about 190-fold lower than the previous one.

`N=C(N)Nc1ccc(Cl)c(C(F)(F)F)c1` showed a Ki of 36 nM.

As to `Cc1ccc(NC(=N)N)cc1`, the affinity corresponds to a Ki of 442 nM.

`N=C(N)Nc1ccc(C(F)(F)F)cc1` had a Ki of 230 nM.

In turn, `N=C(N)Nc1ccc2c(c1)OCO2` yielded a Ki of 274 nM.

For the compound `NC(N)=Nc1cccc(C(F)(F)F)c1`, the inhibition constant Ki turned out to be 2440 nM.

For the compound `N=C(N)NC(=N)Nc1ccc(Cl)cc1` [4-CHLOROPHENYLBIGUANIDE], the affinity corresponds to a Ki of 210 nM. This Ki lies about 12-fold lower than the previous one.

These data come from ChEMBL document CHEMBL1134102, “The binding of arylguanidines at 5-HT(3) serotonin receptors: a structure-affinity investigation” (Bioorg Med Chem Lett, 2001).
